Laboratory results as given in US11731977B2, “SGC stimulators” (Cyclerion Therapeutics, Inc., priority 2016, dated 2023).

Molecular target: T1, sGC enzyme (Homo sapiens, UniProt Q02108+Q02153)
T1 construct: sGC enzyme activity values in HEK cells, determined by the GloSensor assay; host or cells: HEK293 cells stably expressing GloSensor 40F cGMP biosensor
T1 sequence (Q02153 1-619): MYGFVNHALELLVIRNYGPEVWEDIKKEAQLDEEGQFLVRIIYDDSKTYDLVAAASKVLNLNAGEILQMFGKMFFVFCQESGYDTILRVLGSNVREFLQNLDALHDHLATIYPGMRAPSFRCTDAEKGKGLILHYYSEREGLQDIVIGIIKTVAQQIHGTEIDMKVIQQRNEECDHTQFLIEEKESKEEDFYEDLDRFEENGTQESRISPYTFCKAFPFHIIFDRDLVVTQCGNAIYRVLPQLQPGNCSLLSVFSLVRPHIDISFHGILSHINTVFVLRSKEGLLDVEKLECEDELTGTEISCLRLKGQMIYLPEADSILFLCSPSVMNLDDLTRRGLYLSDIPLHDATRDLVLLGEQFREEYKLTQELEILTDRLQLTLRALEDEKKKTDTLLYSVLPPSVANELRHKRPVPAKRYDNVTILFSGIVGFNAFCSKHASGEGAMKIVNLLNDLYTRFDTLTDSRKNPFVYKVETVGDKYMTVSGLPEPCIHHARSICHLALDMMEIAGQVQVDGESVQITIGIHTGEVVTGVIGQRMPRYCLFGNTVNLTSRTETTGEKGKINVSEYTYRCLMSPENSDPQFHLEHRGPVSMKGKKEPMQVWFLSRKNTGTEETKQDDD
T1 sequence (Q02108 1-690): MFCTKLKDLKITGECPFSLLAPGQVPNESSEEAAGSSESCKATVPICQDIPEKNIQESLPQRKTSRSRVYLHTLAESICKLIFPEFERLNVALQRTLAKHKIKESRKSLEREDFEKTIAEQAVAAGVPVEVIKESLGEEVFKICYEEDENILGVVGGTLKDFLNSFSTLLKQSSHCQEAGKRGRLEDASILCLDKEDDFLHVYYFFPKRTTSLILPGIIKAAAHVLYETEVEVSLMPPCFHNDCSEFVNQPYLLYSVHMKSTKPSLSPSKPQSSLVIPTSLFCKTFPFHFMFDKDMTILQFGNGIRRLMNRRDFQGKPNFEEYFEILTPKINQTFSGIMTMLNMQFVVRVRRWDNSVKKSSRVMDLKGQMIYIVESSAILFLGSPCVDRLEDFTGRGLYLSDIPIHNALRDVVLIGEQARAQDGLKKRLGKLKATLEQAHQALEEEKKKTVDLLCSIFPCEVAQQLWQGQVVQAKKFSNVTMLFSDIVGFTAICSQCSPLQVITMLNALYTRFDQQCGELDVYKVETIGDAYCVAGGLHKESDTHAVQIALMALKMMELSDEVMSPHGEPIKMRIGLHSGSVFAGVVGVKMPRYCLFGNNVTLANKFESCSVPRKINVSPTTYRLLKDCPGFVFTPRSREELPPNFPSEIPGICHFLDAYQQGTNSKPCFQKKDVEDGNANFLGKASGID
Assay: cGMP GloSensor cell-based assay, 384-well format (Example 2a)
Settings: HEK293 GloSensor 40F cGMP cells; 10 μM DETA-NONOate; 50% of high control (30 μM Compound Y); read-out: Abs EC50
Summary of the method: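 HEK293 cells expressing GloSensor 40F cGMP biosensor, pre-equilibrated with GloSensor substrate 90 min at 25 °C, then given compound (final 0.029–30000 nM) plus 10 μM DETA-NONOate; luminescence read after 55 min at room temperature. Normalized to 1% DMSO (low) and 30 μM Compound Y (high); Abs EC50 from 4-parameter fit, n=2, geometric mean.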

Row | SMILES | EC50 [nM]
1 | Fc1cccc(Cc2nc(-c3nc(C(F)F)n[nH]3)cn3ccnc23)c1 [Compound I-3, 6-(3-(Difluoromethyl)-1H-1,2,4-triazol-5-yl)-8-(3-fluorobenzyl)imidazo[1,2-a]pyrazine] | 100 to 1000
2 | Fc1ccccc1Cc1nc(-c2nc(C(F)F)n[nH]2)cn2ccnc12 [Compound I-14, 8-(2-Fluorobenzyl)-6-(3-(difluoromethyl)-1H-1,2,4-triazol-5-yl)imidazo[1,2-a]pyrazine] | ≤ 100
3 | Fc1cccc(Cc2nc(-c3nc(C(F)F)n[nH]3)cn3ccnc23)c1F [Compound I-11, 8-(2,3-Difluorobenzyl)-6-(3-(difluoromethyl)-1H-1,2,4-triazol-5-yl)imidazo[1,2-a]pyrazine] | 100 to 1000
4 | Fc1ccccc1Cc1nc(-c2nc(C(F)(F)F)n[nH]2)cn2ncnc12 [Compound I-16, 8-(2-Fluorobenzyl)-6-(3-(trifluoromethyl)-1H-1,2,4-triazol-5-yl)-[1,2,4]triazolo[1,5-a]pyrazine] | ≤ 100

The next lines start with the values.

Row | EC50 [nM] | SMILES
5 | ≤ 100 | Fc1cccc(Cc2nc(-c3nc(C(F)(F)F)n[nH]3)cn3ccnc23)c1F [Compound I-10, 8-(2,3-Difluorobenzyl)-6-(3-(trifluoromethyl)-1H-1,2,4-triazol-5-yl)imidazo[1,2-a]pyrazine]
6 | ≤ 100 | Fc1ccccc1Cc1nc(-c2nc(C(F)(F)F)n[nH]2)cn2ccnc12 [Compound I-1, 8-(2-fluorobenzyl)-6-(3-(trifluoromethyl)-1H-1,2,4-triazol-5-yl)imidazo[1,2-a]pyrazine]
7 | ≤ 100 | Fc1cccc(Cc2nc(-c3nc(C(F)(F)F)n[nH]3)cn3ccnc23)c1 [Compound I-2, 8-(3-Fluorobenzyl)-6-(3-(trifluoromethyl)-1H-1,2,4-triazol-5-yl)imidazo[1,2-a]pyrazine]
